Patent publication US10472605B2, “Serum-free medium” (National University of Ireland, Galway, priority 2014, dated 2019)

What was measured:
MSC [1] = assay: Growth/proliferation of MSC isolated in 10% FBS and re-attached under serum-free conditions; format: cell-based; conditions: fibronectin-coated; for MSC proliferation in serum free medium: over 3 passages, days 5, 10 and 15; for MSC proliferation in serum free medium containing FGF2 (5 ng/ml): 5 days
Description: Tissue culture flasks were pre-coated with FN (black), HA (blue), VN (red) or LN (green) and cells were allowed to adhere in serum-free conditions. Cell numbers were obtained after 5 days. Controls include serum-free plating without the presence of an ECM attachment factor and 10% FBS (grey). Results are representative of 3 biological replicates with n=2;
Cells were then cultured in the presence of growth factors and passaged every 5 days. Controls include serum free plating without growth factors and 10% FBS. Results are representative of 3 biological replicates with n=2;
Cells were then cultured in serum-free media containing FGF2 (5 ng/ml) in the presence of PGE2, cholesterol or lipoprotein for 5 days. Controls include serum free plating without growth factors 10% FBS (A). Cells were then cultured in the presence of lipoprotein and passaged every 5 days for 3 passages, controls include serum free plating without lipoprotein (B). Results are representative of 3 biological replicates with n=2;
(§1) Proliferation of the MSC attached in the presence of basic fibroblast growth factor (bFGF2, FGF2) was also assessed after 6 days.
Serum-free basal medium formulation was selected based on the literature describing low-serum cell culture of dental pulp stem cells (Tarle et al., 2010). The basal medium was composed of ITS (1%, BD), ascorbic acid (10 mM, Sigma Aldrich), dexamethasone (10 nM, Sigma Aldrich), human serum albumin (50 mg/ml, Sigma Aldrich), penicillin/streptomycin solution (1%, Gibco) and MEM-α (Gibco). The effect of a range of growth factors on MSC proliferation was then examined. MSC were attached on fibronectin-coated tissue culture plastic for 48 hours in serum-free basal medium.
The effect of FGF2/FGF4 and FGF7 (1, 5 and 10 ng/ml), PDGFaa/PDGFab and PDGFbb (1, 5 and 10 ng/ml) on MSC proliferation over 3 passages on days 5, 10 and 15 was examined.
To further enhance MSC viability and proliferation lipoprotein was added to the serum-free basal medium. MSC isolated in the presence of serum were seeded on fibronectin-coated tissue culture plastic in serum free medium containing FGF2. Initially a range of factors were screened to support MSC viability after trypsinisation; the effect of prostoglandin E2 (PGE2; 50 μg/ml), cholesterol (30 μg/ml) and lipoprotein (4 μg/ml) on MSC proliferation in serum free medium containing FGF2 (5 ng/ml) was examined.

MSC [2] = assay: Attachment of MSC isolated in 10% FBS and re-attached under serum-free conditions; format: cell-based; conditions: EGF 10 ng/ml, serum free with FGF2, 3 passages
Source text: Tissue culture flasks were pre-coated with fibronectin (FN; black), hylauronic acid (HA; blue), vitronectin (VN; red) or laminin (LN; green) and cells were allowed to adhere in serum-free conditions. Controls include serum-free plating without the presence of an extra-cellular matrix (ECM) attachment factor and 10% FBS (grey). Results are representative of 3 biological replicates with n=2;
MSC were attached on tissue culture flasks in the presence of EGF (red) or on tissue culture plastic precoated with FN (purple) or in the presence of EGF on fibronectin coated plastic (green) and passaged every 3 days. Controls include serum free plating without the presence of an ECM attachment factor (blue) and 10% FBS (black). Results are representative of 3 biological replicates with n=2;
as §1

MSCs = assay: Growth kinetics of MSC cultures, lipoprotein and fibronectin study; format: cell-based, human; conditions: no fibronectin vs pre-coating vs fibronectin in the medium
Description: MSCs were isolated from bone marrow based on plastic adherence in SF medium by plating 40×10^6 human bone marrow mononuclear cells/T-175 and culturing at 37° C., 5% CO2, 21% O2. Cells were subcultured once they had reached 80-90% confluence. MSCs were evaluated by assessing growth kinetics, tri-lineage differentiation and surface marker phenotype at the end of passage 3 (P3). For the lipoprotein study, SF medium was modified to contain one of the various lipoproteins at 80 ng/mL and these cells are seeded onto T175 flasks, which had been pre-coated with fibronectin. […]
VLDL and LDL are involved in trafficking fats to cells in arteries which may indicate why these groups had cells which formed more disperse healthier looking CFU-fs. […] Applying these CFU-f numbers with cell yields at the end of each passage, growth curves were calculated. […]
The final aim of this work was to determine if fibronectin is required for isolation and establishment of MSC cultures in the proprietary serum-free medium. […] This was assessed by looking at CFU-f numbers and growth kinetics of cells isolated from bone marrow directly onto tissue culture plastic without fibronectin, onto tissue culture plastic pre-coated with fibronectin and finally with fibronectin incorporated into the medium itself.

MSC [3] = assay: Serum-free MSC isolation from bone marrow (CFU and cell number at end of primary culture); format: cell-based
Description: The number of colony forming units (CFU; FIG. 6A) and cell number (FIG. 6B) was determined at the end of primary culture. An additional marrow was seeded on tissue culture plastic pre-coated with varying concentrations of fibronectin to determine optimal concentration of fibronectin required. The number of CFU (FIG. 6C) and cell yield (FIG. 6D) was determined at the end of primary culture. Controls include MSC isolation in the presence of 10% FBS or on non-coated tissue culture plastic;
The number of colony forming units (FIG. 7A) and cell number (FIG. 7B) was determined at the end of primary culture. Controls include MSC isolation in the presence of 10% FBS or on non-coated tissue culture plastic;
Initially MSC were isolated from three bone marrows to determine a suitable attachment substrate. […] A further bone marrow donor was then screened to determine the optimal fibronectin concentration; 6 μg/ml was selected as the favourable concentration (FIGS. 6C and 6D).
To examine the role of EGF in MSC isolation and attachment, 5 bone marrows were tested. MSC were isolated in the presence of FGF2 (5 ng/ml) on fibronectin coated plastic in the presence of EGF, or on tissue culture plastic in the presence of EGF.

[4] = test system: bone marrow mononuclear cells (MNCs); assay: CFU-f assay, SF medium with various lipoproteins or fibronectin; format: cell-based, human; conditions: no fibronectin vs pre-coating vs fibronectin added to the medium; standard SF medium with LDL
Description: For the lipoprotein study, Serum Free (SF) media was prepared containing: no lipoprotein (No lipo), very low density lipoprotein (VLDL), low density lipoprotein (LDL) and high density lipoprotein (HDL). Other lipoproteins that exist are chylomicrons and intermediate density lipoprotein which were not assessed in this study as they were not commercially available at the time. MSCs were isolated from bone marrow based on plastic adherence in SF medium by plating 40×10^6 human bone marrow mononuclear cells/T-175 and culturing at 37° C., 5% CO2, 21% O2. Cells were subcultured once they had reached 80-90% confluence. MSCs were evaluated by assessing growth kinetics, tri-lineage differentiation and surface marker phenotype at the end of passage 3 (P3). For the lipoprotein study, SF medium was modified to contain one of the various lipoproteins at 80 ng/mL and these cells are seeded onto T175 flasks, which had been pre-coated with fibronectin. For the fibronectin study described, standard SF medium containing LDL (Standard Formulation) was used and cells were seeded onto T175 flasks without fibronectin, with fibronectin pre-coating or with fibronectin added to the medium itself. CFU-f assays were carried out by seeding bone marrow mononuclear cells (MNCs) at a density of 1×10^6 MNC/10 cm^2 in triplicate in 6-well plates. […]

[5] = three bone marrows, attachment substrate vs vitronectin and hyaluronic acid

## FGF2: basic fibroblast growth factor
MSC [1]; 5 ng/ml
  MSC proliferation in serum free medium: increased MSC proliferation

## EGF: epidermal growth factor
MSC [2]
  MSC attachment over passaging: increased MSC attachment

## PDGFab: growth factor PDGFab
MSC [1]; 10 ng/ml
  MSC proliferation in serum free medium: increased MSC proliferation

## fibronectin
MSCs
  growth kinetics of the MSC cultures with or without fibronectin: unaffected
MSC [3]; 5 bone marrows, FGF2 5 ng/ml, with EGF, coated vs uncoated plastic
  requirement for MSC attachment: required
MSC [3]; [5]
  cell number at the end of the first passage: greatest cell number
  colony forming units: more colony forming units
[4]
  ability of CFU-fs to form / CFU-f numbers with or without fibronectin: No difference

## CC(C)CCC[C@@H](C)[C@H]1CC[C@H]2[C@@H]3CC=C4C[C@@H](O)CC[C@]4(C)[C@H]3CC[C@]12C [cholesterol, reference compound]
MSC [1]; 30 μg/ml
  MSC proliferation in serum free medium containing FGF2 (5 ng/ml): inhibitory effect

## CCCCC[C@H](O)/C=C/[C@H]1[C@H](O)CC(=O)[C@@H]1C/C=C\CCCC(=O)O [PGE2, prostoglandin E2, reference compound]
MSC [1]; 50 μg/ml
  MSC proliferation in serum free medium containing FGF2 (5 ng/ml): inhibitory effect
